Results published in patent US9370506B2, “Modulators of aldehyde dehydrogenase and methods of use thereof” (The Board of Trustees of the Leland Stanford Junior …, priority 2008, dated 2016).

Columns and labels:
ALDH3 = biological target: T1, ALDH3 (Homo sapiens, UniProt P30838); assay: ALDH3 enzymatic activity, spectrophotometric NAD+ to NADH assay; format: biochemical; conditions: acetaldehyde as substrate; FIG. 15
T1 construct: made in house; host or cells: BL21 E. coli
T1 sequence (P30838 1-453): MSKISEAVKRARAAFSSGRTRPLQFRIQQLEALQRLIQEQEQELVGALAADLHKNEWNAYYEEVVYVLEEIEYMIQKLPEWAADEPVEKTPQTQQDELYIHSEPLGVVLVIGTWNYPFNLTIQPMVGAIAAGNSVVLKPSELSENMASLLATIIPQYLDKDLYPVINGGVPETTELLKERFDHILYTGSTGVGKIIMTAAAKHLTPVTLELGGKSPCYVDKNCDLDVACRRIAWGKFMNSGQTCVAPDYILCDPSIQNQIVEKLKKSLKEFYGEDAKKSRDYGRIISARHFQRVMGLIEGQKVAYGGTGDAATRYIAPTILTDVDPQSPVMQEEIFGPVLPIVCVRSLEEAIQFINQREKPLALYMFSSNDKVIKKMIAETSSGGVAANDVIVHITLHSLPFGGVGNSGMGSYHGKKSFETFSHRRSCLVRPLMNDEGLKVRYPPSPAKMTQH
Procedure: (§1) Reagents for plant-derived compounds safrole, isosafrole, piperine, sesamin, capsaicin were purchased from Sigma-Aldrich Chemicals and dihydromethysticin was purchased from AvaChem. Scientific. Piperine related compounds, Alda-101 to Alda-112, were synthesized by standard organic chemistry. All testing compounds were dissolved in dimethyl-sulfoxide (DMSO) to obtain a stock solution of 20 mM. Different recombinant ALDH isozymes with a His-epitope tag at the N-terminus were constructed, cloned and expressed in BL21 E. coli host cells according published methods (Chen et al., 2008 Science 321:1493). The bacteria were subjected to 0.5 mM IPTG induction for protein expression at 30° C. Purification of the recombinant proteins by affinity nickel columns were carried out using a standard protocol according to manufacturer's instructions (Novagen, Wis., USA).
(§2) ALDH enzymatic activity was determined spectrophotometrically using purified recombinant protein (15 ug) in the reductive reaction of NAD^+ to NADH at λ340 nm (Rex et al., 1985, Alcohol Clin Exp Res 9: 147). All the assays in the presence of absence of a testing compound were carried out at 25° C. in […] pyrophosphate buffer, pH=9.5, 2.4 mM NAD+ and 10 mM acetaldehyde or phenylacetaldehyde as a substrate.

ALDH2 isozyme = biological target: T2, ALDH2 isozyme (Homo sapiens, UniProt P05091); assay: ALDH2 enzymatic activity, spectrophotometric NAD+ to NADH assay; format: biochemical; conditions: 40 uM
T2 construct: made in house; host or cells: BL21 E. coli
T2 sequence (P05091 18-517): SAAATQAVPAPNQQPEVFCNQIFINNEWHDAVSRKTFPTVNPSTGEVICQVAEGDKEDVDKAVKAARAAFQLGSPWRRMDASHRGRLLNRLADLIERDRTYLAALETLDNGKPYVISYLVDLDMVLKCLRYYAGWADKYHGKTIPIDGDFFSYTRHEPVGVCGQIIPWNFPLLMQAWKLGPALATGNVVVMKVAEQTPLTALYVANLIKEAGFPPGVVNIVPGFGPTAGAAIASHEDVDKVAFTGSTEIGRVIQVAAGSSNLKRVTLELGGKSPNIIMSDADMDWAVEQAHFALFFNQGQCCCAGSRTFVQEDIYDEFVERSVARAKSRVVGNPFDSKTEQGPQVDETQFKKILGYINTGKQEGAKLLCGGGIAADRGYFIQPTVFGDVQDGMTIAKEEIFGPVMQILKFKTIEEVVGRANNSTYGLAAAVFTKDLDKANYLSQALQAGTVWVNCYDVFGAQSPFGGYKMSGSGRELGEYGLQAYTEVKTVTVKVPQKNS
Procedure: as §1, §2

C57Bl/6J mice = assay: Radiation dermatitis model, gamma irradiation of skin; format: in vivo
Text: Radiation dermatitis is a painful side effect experienced by human patients undergoing radiotherapy for solid tumors. Radiation dermatitis is believed to be due to acute oxidative injury to the skin, which leads to lipid peroxidation and the accumulation of reactive aldehydes, such as 4-hydrorxynonenal. In this example, Alda-1 is shown to reduce radiation dermatitis by maintaining ALDH activity during exposure to radiation. C57Bl/6J mice were exposed to 6Gy gamma irradiation per day (applied directly to the shaved back area over a period of 5 minutes) in the absence or presence of 200 μl of 3 mM Alda-1 (in 95% ethanol) or […] alone (vehicle control). Alda-1 or ethanol alone was applied topically 5 minutes before and 5 minutes after each radiation treatment for a total of 10 sessions (60 Gy total, 6 Gy/day with a two-day break after 5 sessions). Mice were euthanized and exposed skin was dissected, and either homogenized in Lysis Buffer (for ALDH2 activity assay, FIG. 18) or fixed in 4%-paraformaldehyde (for histological analysis, FIG. 19).

[1] = test system: SCC VII murine squamous cell carcinoma cells; assay: Tumor radiation therapy model; format: in vivo, mice; conditions: topical 200 μl of 3 mM, FIG. 21
Procedure: In order to determine the impact of Alda-1 on the effectiveness of radiation therapy, C57Bl/6J mice were inoculated subcutaneously with SCC VII murine squamous cell carcinoma cells (5×10^5) and exposed to radiation therapy (250cGy/day) in the absence or presence of Alda-1 (200 μl of 3 mM Alda-1 in 95% ethanol) or ethanol (200 μl of 95% ethanol) applied 5 min before and 5 min after radiation. Tumor volume was measured daily until the tumor reached four times its starting size at treatment onset (Ning et al., 2008, Mol Cancer Therapy 7:1569-78).

## O=C(NCc1ccc2c(c1)OCO2)c1c(Cl)cccc1Cl [Alda-1, N-(1,3-benzodioxol-5-ylmethyl)-2,6-dichlorobenzamide]
ALDH3
  effect on enzymatic activity of ALDH3 isozyme: does not have any effect
ALDH2 isozyme; safrole 500 uM & 1000 uM, FIG. 17
  effect of co-incubation on safrole inhibition of ALDH2: prevented and reversed
ALDH2 isozyme; safrole 1000 uM, FIG. 18
  effect of co-incubation on safrole inhibition of ALDH2, 15-minute kinetic measurements: prevented and reversed
C57Bl/6J mice; topical 3 mM in 95% ethanol, 6Gy gamma irradiation, FIG. 19
  ALDH activity in irradiated skin: significantly attenuated the inhibition of ALDH
C57Bl/6J mice; topical 3 mM, 5 days exposure to 6Gy irradiation, vs vehicle control, FIG. 20
  Epidermal thickening after radiation: significantly reduced
[1]; 250cGy/day, vs ethanol vehicle control
  sensitivity of the tumor to radiation treatment (tumor growth): increased significantly the sensitivity of the tumor to radiation treatment
[1]; no radiation, vs ethanol treated mice
  tumor growth in non-irradiated mice: no effect on tumor growth
